Measured values published in patent US7893256B2, “Azabicycloalkane compounds” (Theravance, Inc., priority 2003, dated 2011).

Assays:
[1] = target: T1, human β2 adrenergic receptor (Homo sapiens, UniProt P07550); assay: Whole-cell cAMP Flashplate assay in CHO cell lines heterologously expressing human β2 adrenergic receptor (Assay Test Procedure C); format: cell-based
T1 construct: expressed in transfected cells; membranes
Experimental: cAMP assays were performed in a radioimmunoassay format using the Flashplate Adenylyl Cyclase Activation Assay System with [^125I]-cAMP (NEN SMP004, PerkinElmer Life Sciences Inc., Boston, Mass.), according to the manufacturers instructions. For the determination of […] receptor agonist potency (EC50), CHO-K1 cell lines stably expressing cloned human β1, β2 or β3 adrenergic receptors were grown to near confluency in HAM's F-12 media supplemented with 10% FBS and Geneticin (250 μg/mL). Cells were rinsed with PBS and detached in dPBS (Dulbecco's Phosphate Buffered Saline, without CaCl2 and MgCl2) containing 2 mM EDTA or Trypsin-EDTA solution (0.05% trypsin/0.53 mM EDTA). After counting cells in Coulter cell counter, cells were pelleted by centrifugation at 1,000 rpm and re-suspended in stimulation buffer containing IBMX (PerkinElmer Kit) pre-warmed to room temperature to a concentration of 1.6×10^6 to 2.8×10^6 cells/mL. About 60,000 to 80,000 cells per well were used in this assay. […] The amount of cAMP produced (pmol/well) was calculated based on the counts observed for the samples and cAMP standards as described in the manufacturer's user manual. Data were analyzed by nonlinear regression analysis with the GraphPad Prism Software package (GraphPad Software, Inc., San Diego, Calif.) with the sigmoidal equation. […]

hM2 receptor = target: T2, hM2 receptor (Homo sapiens, UniProt P08172); assay: Blockade of agonist-mediated inhibition of cAMP accumulation (Assay Test Procedure D, A); format: cell-based; settings: CHO-K1 cells expressing the hM2 receptor; read-out: Ki value for blockade of oxotremorine-inhibition of forskolin-mediated cAMP accumulation
T2 construct: expressed in transfected cells; host or cells: CHO-K1 cells
T2 sequence (P08172 1-466): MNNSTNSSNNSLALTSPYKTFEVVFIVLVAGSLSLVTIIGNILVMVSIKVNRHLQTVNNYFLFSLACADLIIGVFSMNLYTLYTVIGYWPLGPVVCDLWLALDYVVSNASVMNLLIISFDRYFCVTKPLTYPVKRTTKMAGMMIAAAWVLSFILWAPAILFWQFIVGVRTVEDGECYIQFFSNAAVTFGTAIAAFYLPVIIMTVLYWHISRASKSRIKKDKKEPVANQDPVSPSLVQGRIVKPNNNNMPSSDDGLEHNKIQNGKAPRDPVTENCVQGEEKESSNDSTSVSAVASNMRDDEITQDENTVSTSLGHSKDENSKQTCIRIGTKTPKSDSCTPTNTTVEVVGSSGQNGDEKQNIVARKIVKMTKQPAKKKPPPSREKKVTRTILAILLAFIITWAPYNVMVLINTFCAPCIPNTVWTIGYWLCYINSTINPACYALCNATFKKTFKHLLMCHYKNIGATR
Experimental: In this assay, the functional potency of a test compound was determined by measuring the ability of the test compound to block oxotremorine-inhibition of forskolin-mediated cAMP accumulation in CHO-K1 cells expressing the hM2 receptor. cAMP assays were performed in a radioimmunoassay format using the Flashplate Adenylyl Cyclase Activation Assay System with ^125I-cAMP (NEN SMP004B, PerkinElmer Life Sciences Inc., Boston, Mass.), according to the manufacturer's instructions. Cells were rinsed once with dPBS and lifted with Trypsin-EDTA solution (0.05% trypsin/0.53 mM EDTA) as described in the Cell Culture and Membrane Preparation section above. The detached cells were washed twice by centrifugation at 650×g for five minutes in 50 mL dPBS. The cell pellet was then re-suspended in 10 mL dPBS, and the cells were counted with a Coulter Z1 Dual Particle Counter (Beckman Coulter, Fullerton, Calif.). […]
Reactions were incubated for 10 minutes at 37° C. and stopped by addition of 100 μL ice-cold detection buffer. Plates were sealed, incubated overnight at room temperature and counted the next morning on a PerkinElmer TopCount liquid scintillation counter (PerkinElmer Inc., Wellesley, Mass.). The amount of cAMP produced (pmol/well) was calculated based on the counts observed for the samples and cAMP standards, as described in the manufacturer's user manual. […]

T1 sequence (P07550 whole entry): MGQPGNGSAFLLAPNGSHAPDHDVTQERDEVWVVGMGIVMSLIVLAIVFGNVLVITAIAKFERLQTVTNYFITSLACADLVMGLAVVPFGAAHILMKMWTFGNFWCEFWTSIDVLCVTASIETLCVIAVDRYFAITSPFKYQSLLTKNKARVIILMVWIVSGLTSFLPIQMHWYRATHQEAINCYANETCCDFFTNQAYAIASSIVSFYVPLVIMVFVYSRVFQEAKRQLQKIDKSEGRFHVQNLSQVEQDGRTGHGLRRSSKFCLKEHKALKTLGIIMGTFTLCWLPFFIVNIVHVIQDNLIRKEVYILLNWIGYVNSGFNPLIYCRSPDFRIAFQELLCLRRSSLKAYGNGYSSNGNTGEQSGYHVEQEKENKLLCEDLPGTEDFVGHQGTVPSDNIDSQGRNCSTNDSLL

SMILES: C[N+]1(CCCCCCCCCNC[C@H](O)c2ccc(O)c3[nH]c(=O)ccc23)C2CC(OC(=O)C(O)(c3cccs3)c3cccs3)CC1C1OC12.C[N+]1(CCCCCCCCCNC[C@H](O)c2ccc(O)c3[nH]c(=O)ccc23)C2CC(OC(=O)C(O)(c3cccs3)c3cccs3)CC1C1OC12.O=C([O-])C(F)(F)F.O=C([O-])C(F)(F)F (stereo partly drawn) [Example 1, 7-(2-Hydroxy-2,2-dithiophen-2-ylacetoxy)-9-{9-[(R)-2-hydroxy-2-(8-hydroxy-2-oxo-1,2-dihydroquinolin-5-yl)ethylamino]nonyl}-9-methyl-3-oxa-9-azonia-tricyclo[3.3.1.0^2,4]nonane Ditrifluoroacetate]
- EC50 ([1]; cAMP, CHO-K1 cells expressing cloned human β2 receptor): < 10 nM
- ratio of EC50(β1)/EC50(β2) ([1]; receptor subtype selectivity, functional, β2 over β1): greater than 10
- Ki (hM2 receptor): < 50 nM
